Data from PMC11094793, “Discovery of LLC0424 as a Potent and Selective in Vivo NSD2 PROTAC Degrader” (Journal of Medicinal Chemistry, 2024).

Biological target: T1, NSD2 (Homo sapiens, UniProt O96028, E1099K)
T1 construct: from tissue; host or cells: SEM subcutaneous xenograft tumours in CB17 SCID mice
T1 sequence (O96028 1-1365 E1099K): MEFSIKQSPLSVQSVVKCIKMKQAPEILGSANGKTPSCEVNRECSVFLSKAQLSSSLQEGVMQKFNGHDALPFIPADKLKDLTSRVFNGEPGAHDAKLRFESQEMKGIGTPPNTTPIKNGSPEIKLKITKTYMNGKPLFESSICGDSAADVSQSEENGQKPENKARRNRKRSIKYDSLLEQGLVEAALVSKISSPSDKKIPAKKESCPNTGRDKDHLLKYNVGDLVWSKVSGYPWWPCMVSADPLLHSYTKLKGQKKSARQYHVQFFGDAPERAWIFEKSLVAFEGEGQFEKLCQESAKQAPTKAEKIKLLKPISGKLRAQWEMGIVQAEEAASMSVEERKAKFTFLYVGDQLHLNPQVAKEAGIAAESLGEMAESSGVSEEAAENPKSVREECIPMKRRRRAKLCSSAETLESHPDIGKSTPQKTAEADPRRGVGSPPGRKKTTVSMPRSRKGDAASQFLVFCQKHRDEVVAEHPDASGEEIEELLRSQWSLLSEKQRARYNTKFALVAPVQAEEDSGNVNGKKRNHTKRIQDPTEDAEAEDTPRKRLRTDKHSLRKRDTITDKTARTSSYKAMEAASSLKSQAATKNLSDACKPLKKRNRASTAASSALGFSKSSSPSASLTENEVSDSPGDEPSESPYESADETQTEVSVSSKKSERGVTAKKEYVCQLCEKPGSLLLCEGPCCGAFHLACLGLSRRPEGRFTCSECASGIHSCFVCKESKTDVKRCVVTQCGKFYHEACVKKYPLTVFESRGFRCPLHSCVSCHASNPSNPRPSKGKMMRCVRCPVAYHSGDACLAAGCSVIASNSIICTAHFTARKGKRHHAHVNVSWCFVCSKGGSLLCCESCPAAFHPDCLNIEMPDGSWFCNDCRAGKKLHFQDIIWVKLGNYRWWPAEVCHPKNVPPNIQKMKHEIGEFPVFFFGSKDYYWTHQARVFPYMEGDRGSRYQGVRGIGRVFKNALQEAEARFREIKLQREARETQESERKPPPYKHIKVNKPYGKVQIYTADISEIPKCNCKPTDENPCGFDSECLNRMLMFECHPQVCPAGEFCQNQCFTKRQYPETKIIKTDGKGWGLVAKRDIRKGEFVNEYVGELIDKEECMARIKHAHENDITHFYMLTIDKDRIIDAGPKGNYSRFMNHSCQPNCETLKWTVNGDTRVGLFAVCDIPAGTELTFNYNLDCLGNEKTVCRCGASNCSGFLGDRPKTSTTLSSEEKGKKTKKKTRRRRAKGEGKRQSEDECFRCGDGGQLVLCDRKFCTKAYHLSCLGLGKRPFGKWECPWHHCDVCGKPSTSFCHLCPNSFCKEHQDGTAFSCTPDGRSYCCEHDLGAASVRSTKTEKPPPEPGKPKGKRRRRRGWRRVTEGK
Test: Pharmacodynamic assessment in SEM xenograft model (IHC, Western blot)
Type: in vivo, mice
Conditions: 60 mg/kg iv, 5 consecutive days, versus vehicle
Experimental: We finally performed pharmacodynamic assessment of LLC0424 in both the SEM and 22RV1 xenograft model. Based on the solubility of LLC0424 and the tolerance of the mice, we chose 60 mg/kg as the dosage for the pharmacodynamic study. LLC0424 was administrated by intravenous (iv) or intraperitoneal (ip) injection at a dose of 60 mg/kg for 5 consecutive days. The tumor tissues were harvested at day 5 and subjected to histology and Western blot analysis (Figure 7A, and SI, Figure S6A).
First, 6–8 weeks old male CB17 severe combined immunodeficiency (SCID) mice were procured from the University of Michigan breeding colony. Subcutaneous tumors were established at both sides of the dorsal flank of mice. Tumors were measured at least biweekly using digital calipers following the formula (π/6) (L × W2), where L is length and W is width of the tumor. At the end of the studies, mice were sacrificed and tumors extracted. For each tumor, a part is […] followed by embedding in paraffin to make tissue blocks. The blocks were sectioned at […] for immunohistochemistry analysis. Another part is made into tissue lysates for Western blotting analysis. The University of Michigan Institutional Animal Care and Use Committee (IACUC) approved all in vivo studies. […]

NSD2 level in tumor tissue: significantly downregulated
SMILES: O=C1CCC(N2C(=O)c3ccc(N4CCC(NC(=O)c5ccc(NC(=O)c6ccc(CN(C(=O)c7ccc8c(c7)OCC(=O)N8)C7CC7)cc6)cc5)CC4)cc3C2=O)C(=O)N1 (stereo not shown) [compound 10l, N-Cyclopropyl-N-(4-((4-((1-(2-(2,6-dioxopiperidin-3-yl)-1,3-dioxoisoindolin-5-yl)piperidin-4-yl)carbamoyl)phenyl)carbamoyl)benzyl)-3-oxo-3,4-dihydro-2H-benzo[b][1,4]oxazine-7-carboxamide]
